Series [1] concerns HIV 1 IIIB. In words: microbe, parasite or virus in culture. The class given is cell-based, Human Immunodeficiency Virus type 1. As to conditions: Human immunodeficiency virus 1, IIIB.
Series [2] in a line: in vitro.
Series [3] deals with HSV-1. In words: HSV-1 Plaque Reduction. As to conditions: Human alphaherpesvirus 1, HFF, in Homo sapiens, read-out: EC50, HSV-1 Plaque Reduction.
In series [4] the test system is HSV-2. The series is described as follows: HSV-2 CPE Inhibition. As to conditions: Human alphaherpesvirus 2, HFF, in Homo sapiens, read-out: EC50, HSV-2 CPE Inhibition.
Series [5] relates to VZV. The series is described as follows: VZV viral count or plaque reduction. The class given is cell-based, Varicella Zoster Virus. As to conditions: Human alphaherpesvirus 3.
For series [6], the system named is HSV-1. In words: HSV-1 CPE Inhibition. To be noted: Human alphaherpesvirus 1, HFF, in Homo sapiens, read-out: EC50, HSV-1 CPE Inhibition.
Series [7] has as its system HSV-2. The series is described as follows: HSV-2 Plaque Reduction. As to conditions: Human alphaherpesvirus 2, HFF, in Homo sapiens, read-out: EC50, HSV-2 Plaque Reduction.
Series [8] has as its system Cytomegalovirus (Davis strain). The series is described as follows: HCMV CPE Inhibition. As to conditions: Human betaherpesvirus 5, HFF, in Homo sapiens, read-out: EC50, HCMV CPE Inhibition.
Series [9] can be described thus: in vitro. As to conditions: mouse.
Series [10] has as its system MCMV. The series is described as follows: MCMV Plaque Reduction. As to conditions: Mus musculus, MEF, read-out: EC50, MCMV Plaque Reduction.
Series [11] concerns Cytomegalovirus (Davis strain). The series is described as follows: HCMV Plaque Reduction. To be noted: Human betaherpesvirus 5, HFF, in Homo sapiens, read-out: EC50, HCMV Plaque Reduction.
Series [12] has as its system Flu B. In words: microbe, parasite or virus in culture. The class given is cell-based. As to conditions: Influenza B virus, read-out: NR = Neutral Red cell count EC50.
Series [13] concerns RSV; A2. In words: RSV A2 Neutral Red cell count. Type of series: cell-based. To be noted: human respiratory syncytial virus, read-out: NR = Neutral Red cell count EC50.
The test system of series [14] is CMV. The series is described as follows: microbe, parasite or virus in culture. Type of series: cell-based. As to conditions: Human betaherpesvirus 5, read-out: CPE-inhibition EC50.
Series [15] has as its system RSV; A2. The series is described as follows: RSV A2 viral count or plaque reduction. The class given is cell-based. As to conditions: human respiratory syncytial virus, Table 5.
The subject of series [16] is RSV; A2. In words: RSV A2 virus yield.
Series [17] deals with RSV; Long. The series is described as follows: RSV Long CPE-inhibition. The class given is cell-based, Respiratory Syncytial Virus.
Series [18] concerns uninfected cells.

Values after ≈ are worked out from the molar mass of the structure shown. Like-named read-outs stand apart in the source and are kept apart here.

Consider `Cc1cn([C@H]2C[C@H](N=[N+]=[N-])[C@@H](CO)O2)c(=O)[nH]c1=O` [AZT, Zidovudine], for which the values for the EC50 in series [1] and in series [1] (read-out: CPE-inhibition EC50) were 0.0001 µg/mL and 0.37 nM, respectively. Further, the CC50 in series [2] (CC50, parallel to HIV 1 IIIB test, Table 1, standards) is 1.17 µg/mL; in series [2] (CPE-inhibition (CC50), parallel to HIV-1 IIIB test, Table 5, Concentrations μM), 4.38 µM.

In the case of `Nc1nc2c(ncn2COCCO)c(=O)[nH]1` [Acyclovir], the EC50 in [3] is 0.3 µg/mL (≈ 1.33 µM); in series [4], 0.2 µg/mL (≈ 0.888 µM); in [5] it was 0.5 µg/mL (≈ 2.22 µM); in series [6] it was 0.06 µg/mL (≈ 0.266 µM); in series [7] it was 0.6 µg/mL (≈ 2.66 µM).

Regarding `Nc1nc(O)c2ncn(COC(CO)CO)c2n1` [Ganciclovir], the concentration giving a half-maximal response (EC50) in series [8] stood at 0.1 µg/mL (≈ 0.392 µM); in [10], 0.6 µg/mL (≈ 2.35 µM); in series [11] it was 0.2 µg/mL (≈ 0.784 µM). The same compound displayed a CC50 in [9] of 0.5 µg/mL (≈ 1.96 µM).

With `NC(=O)c1ncn([C@@H]2O[C@H](CO)[C@@H](O)[C@H]2O)n1` [Ribavirin], the CC50 in series [2] was above 100 µg/mL; in [2] (CPE-inhibition (CC50), parallel to CMV CPE-inhibition, Table 6), 118 µg/mL; in series [2] (CPE-inhibition (CC50), parallel to RSV A2 CPE-inhibition) it was above 1000 µg/mL; in series [2] (NR = Neutral Red cell count (CC50)), 40 µg/mL; in series [2] (Viral count or Plaque Reduction (CC50), parallel to RSV A2 viral count, Table 5), above 1000 µg/mL; in [2] (Virus Yield (CC50), parallel to RSV A2 virus yield test), 71 µg/mL. The EC50 in [12] was 1.8 µg/mL (≈ 7.37 µM); in series [13], 1 µg/mL (≈ 4.09 µM); in [14], 25 µg/mL (≈ 102 µM); in series [15], 2 µg/mL (≈ 8.19 µM); in [16] (human respiratory syncytial virus, read-out: Virus Yield EC50), 6 µg/mL (≈ 24.6 µM); in [17] (human respiratory syncytial virus), 10 µg/mL (≈ 40.9 µM). Moreover, the “Virus Yield SI = CC50/EC90” value in [16] (RSV, A2) was 12. For the same compound, the EC90 in series [16] (human respiratory syncytial virus, read-out: Virus Yield EC90) was found to be 6 µg/mL (≈ 24.6 µM). In addition, the “CPE-inhibition EC50” value in series [17] came to 7 µg/mL.

On to “poly-L-lysyl [(8-octanamido)-5-acetamido-3,5-dideoxy-2-thio-D-glycero-α-D-galacto-2-nonulopyranosidoic acid]n [BRI 6150]”, for which the “Virus Yield (CC50)” value in [18] was above 1000 µg/mL.
